“Also recorded” adds a separate entry of the source. Read-outs that look alike come from different tables or passages of the source.
Tested on: cartilage precursor cells from the developing limb bud of normal chick embryos
Test: Cartilage development in micromass cultures of cartilage precursor cells
Assay type: cell-based
[1] = varying doses of the salt added to basic culture medium (about 0.6 μg/ml ferrous sulphate, about 75 μg/ml ascorbic acid) vs control group without addition, FIG. 2, FIG. 4

Compound: O=S(=O)([O-])[O-].[Co+2] [cobalt (II) sulphate]
- cartilage development (amount of cartilage produced): No statistically significant increase in cartilage development; also recorded: significantly reduce the amount of cartilage produced in a dose-dependent manner

Compound: O=S(=O)([O-])[O-].[Fe+2] [ferrous sulphate]
- cartilage development (amount of cartilage produced): significantly enhanced cartilage development in a dose-dependent manner
- cartilage production when combined with ascorbic acid: significantly enhanced the cartilage production

Compound: O=S(=O)([O-])[O-].[K+].[K+] [potassium sulphate]
- cartilage development (amount of cartilage produced): No statistically significant increase in cartilage development

Compound: O=C([O-])/C=C/C(=O)[O-].[Fe+2] [ferrous fumarate]
- cartilage development (amount of cartilage produced) [1]: significantly enhanced cartilage production

Compound: O=S(=O)([O-])[O-].[Zn+2] [zinc sulphate]
- cartilage development (amount of cartilage produced): no statistically significant increase in cartilage development

Compound: ferrous ascorbate
- cartilage development (amount of cartilage produced) [1]: significantly enhanced cartilage production

Compound: O=C1O[C@H]([C@@H](O)CO)C(O)=C1O [ascorbic acid]
- cartilage development (amount of cartilage produced) (ascorbic acid 75 or 150 μg/ml added vs control with no ascorbic acid added, FIG. 1): significantly enhances cartilage development in a dose-dependent manner

Compound: O=S(=O)([O-])[O-].O=S(=O)([O-])[O-].O=S(=O)([O-])[O-].[Fe+3].[Fe+3] [ferric sulphate]
- cartilage development (amount of cartilage produced): no statistically significant difference

Source: patent US20010044425A1, “Compositions useful in the treatment of diseases of connective tissues” (priority 2000, published 2001)
